According to US20240239861A1, “GLUCAGON-RECEPTOR SELECTIVE POLYPEPTIDES AND METHODS OF USE THEREOF” (i2O Therapeutics, Inc., priority 2016, published 2024):
Where a SMILES comes first, the peptide text is derived from it. [ ]: non-standard residue; d: D form. Aib = CC(C)(N)C(=O)O

molecular target: human GCGR (Homo sapiens, UniProt P47871); assay: Peptide-receptor mediated cAMP accumulation (LANCE Ultra cAMP) in CHO-K1 cells transfected with human GCGR; format: cell-based; conditions: FIG. 1A

Compound | activation profile at the human glucagon receptor (GCGR)
GLP-1 (7-37): form of glucagon-like peptide-1 used as comparator in the receptor activation profiles of FIG. 1 [reference compound] | much lower potency

molecular target: human GLP-1R (Homo sapiens, UniProt P43220); assay: Peptide-receptor mediated cAMP accumulation (LANCE Ultra cAMP) in CHO-K1 cells transfected with human GLP-1R; format: cell-based; conditions: hGLP1 pEC50 (cAMP mean (n = 3): 11 point curve starting at 1 nM, Table 3)
Sequence (P43220 24-463): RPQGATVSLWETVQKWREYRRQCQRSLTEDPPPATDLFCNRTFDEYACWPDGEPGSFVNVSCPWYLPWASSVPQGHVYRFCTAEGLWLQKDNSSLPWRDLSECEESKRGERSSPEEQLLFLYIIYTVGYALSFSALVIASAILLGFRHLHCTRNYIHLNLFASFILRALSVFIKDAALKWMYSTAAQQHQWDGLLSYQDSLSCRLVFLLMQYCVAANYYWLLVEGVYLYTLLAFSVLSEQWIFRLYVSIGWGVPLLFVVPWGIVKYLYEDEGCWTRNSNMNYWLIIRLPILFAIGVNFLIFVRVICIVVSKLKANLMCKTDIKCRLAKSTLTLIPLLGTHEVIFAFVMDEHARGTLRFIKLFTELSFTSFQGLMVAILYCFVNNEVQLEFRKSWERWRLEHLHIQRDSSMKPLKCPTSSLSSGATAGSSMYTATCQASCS

Compound | EC50 [nM]
CC(C)C[C@H](NC(=O)[C@H](Cc1ccc(O)cc1)NC(=O)[C@H](CCCCN)NC(=O)[C@H](CO)NC(=O)[C@H](Cc1ccc(O)cc1)NC(=O)[C@H](CC(=O)O)NC(=O)[C@H](CO)NC(=O)[C@@H](NC(=O)[C@H](Cc1ccccc1)NC(=O)[C@@H](NC(=O)CNC(=O)[C@H](Cc1c[nH]cn1)NC(=O)[C@H](CO)NC(=O)[C@@H](N)Cc1ccc(O)cc1)[C@@H](C)O)[C@@H](C)O)C(=O)N[C@@H](CC(=O)O)C(=O)N[C@@H](C)C(=O)N[C@@H](C)C(=O)N[C@@H](CCCNC(=N)N)C(=O)N[C@@H](C)C(=O)N[C@@H](CCC(N)=O)C(=O)N[C@@H](CCC(=O)O)C(=O)N[C@@H](Cc1ccccc1)C(=O)N[C@H](C(=O)N[C@@H](CCCCN)C(=O)N[C@@H](Cc1c[nH]c2ccccc12)C(=O)N[C@@H](CC(C)C)C(=O)N[C@@H](CCC(=O)O)C(=O)N[C@@H](CC(=O)O)C(=O)N[C@@H](CCC(=O)O)C(=O)N1CCC[C@H]1C(=O)N[C@@H](CCCCN)C(=O)N[C@@H](CO)C(=O)N[C@@H](CCCCN)C(=O)N[C@@H](CO)C(=O)N1CCC[C@H]1C(=O)N1CCC[C@H]1C(=O)N1CCC[C@H]1C(=O)N[C@@H](CO)C(N)=O)C(C)C [Compound A80] (H-YSHGTFTSDYSKYLDAARAQEFVKWLEDEPKSKSPPPS-NH2; N-terminus assumed) | > 1
CC(C)C[C@H](NC(=O)[C@H](Cc1ccc(O)cc1)NC(=O)[C@H](CCCCN)NC(=O)[C@H](CO)NC(=O)[C@H](Cc1ccc(O)cc1)NC(=O)[C@H](CC(=O)O)NC(=O)[C@H](CO)NC(=O)[C@@H](NC(=O)[C@H](Cc1ccccc1)NC(=O)[C@@H](NC(=O)CNC(=O)[C@H](Cc1c[nH]cn1)NC(=O)[C@H](CO)NC(=O)[C@@H](N)Cc1ccc(O)cc1)[C@@H](C)O)[C@@H](C)O)C(=O)N[C@@H](CC(=O)O)C(=O)NC(C)(C)C(=O)N[C@@H](CCCCN)C(=O)N[C@@H](CCCNC(=N)N)C(=O)N[C@@H](C)C(=O)N[C@@H](CCC(N)=O)C(=O)N[C@@H](CCC(=O)O)C(=O)N[C@@H](Cc1ccccc1)C(=O)N[C@H](C(=O)NC(C)(C)C(=O)N[C@@H](Cc1c[nH]c2ccccc12)C(=O)N[C@@H](CC(C)C)C(=O)N[C@@H](CCC(=O)O)C(=O)N[C@@H](CC(=O)O)C(=O)N[C@@H](CCC(=O)O)C(=O)N1CCC[C@H]1C(=O)N[C@@H](CO)C(=O)N[C@@H](CO)C(=O)NCC(=O)N[C@@H](CCCCN)C(=O)N1CCC[C@H]1C(=O)N1CCC[C@H]1C(=O)N1CCC[C@H]1C(=O)N[C@@H](CO)C(N)=O)C(C)C [Compound A85] (H-YSHGTFTSDYSKYLD[Aib]KRAQEFV[Aib]WLEDEPSSGKPPPS-NH2; N-terminus assumed) | > 1
CC(C)C[C@H](NC(=O)[C@H](Cc1ccc(O)cc1)NC(=O)[C@H](CCCCN)NC(=O)[C@H](CO)NC(=O)[C@H](Cc1ccc(O)cc1)NC(=O)[C@H](CC(=O)O)NC(=O)[C@H](CO)NC(=O)[C@@H](NC(=O)[C@H](Cc1ccccc1)NC(=O)[C@@H](NC(=O)CNC(=O)[C@H](Cc1c[nH]cn1)NC(=O)[C@H](CO)NC(=O)[C@@H](N)Cc1ccc(O)cc1)[C@@H](C)O)[C@@H](C)O)C(=O)N[C@@H](CC(=O)O)C(=O)NC(C)(C)C(=O)N[C@@H](CCCCN)C(=O)N[C@@H](CCCNC(=N)N)C(=O)N[C@@H](C)C(=O)N[C@@H](CCC(N)=O)C(=O)N[C@@H](CCC(=O)O)C(=O)N[C@@H](Cc1ccccc1)C(=O)N[C@H](C(=O)NC(C)(C)C(=O)N[C@@H](Cc1c[nH]c2ccccc12)C(=O)N[C@@H](CC(C)C)C(=O)N[C@@H](CCC(=O)O)C(=O)N[C@@H](CC(=O)O)C(=O)N[C@@H](CCC(=O)O)C(=O)N[C@@H](CCCCN)C(=O)N[C@@H](CO)C(=O)N[C@@H](CO)C(=O)NCC(=O)N[C@@H](CCCCN)C(=O)N1CCC[C@H]1C(=O)N1CCC[C@H]1C(=O)N1CCC[C@H]1C(=O)N[C@@H](CO)C(=O)O)C(C)C [Compound A87] (H-YSHGTFTSDYSKYLD[Aib]KRAQEFV[Aib]WLEDEKSSGKPPPS-OH; N-terminus assumed) | > 1
CC(C)C[C@H](NC(=O)[C@H](Cc1ccc(O)cc1)NC(=O)[C@H](CCCCN)NC(=O)[C@H](CO)NC(=O)[C@H](Cc1ccc(O)cc1)NC(=O)[C@H](CC(=O)O)NC(=O)[C@H](CO)NC(=O)[C@@H](NC(=O)[C@H](Cc1ccccc1)NC(=O)[C@@H](NC(=O)CNC(=O)[C@H](Cc1c[nH]cn1)NC(=O)[C@H](CO)NC(=O)[C@@H](N)Cc1ccc(O)cc1)[C@@H](C)O)[C@@H](C)O)C(=O)N[C@@H](CC(=O)O)C(=O)NC(C)(C)C(=O)N[C@@H](CCCCN)C(=O)N[C@@H](CCCNC(=N)N)C(=O)N[C@@H](C)C(=O)N[C@@H](CCC(N)=O)C(=O)N[C@@H](CCC(=O)O)C(=O)N[C@@H](Cc1ccccc1)C(=O)N[C@H](C(=O)NC(C)(C)C(=O)N[C@@H](Cc1c[nH]c2ccccc12)C(=O)N[C@@H](CC(C)C)C(=O)N[C@@H](CCC(=O)O)C(=O)N[C@@H](CC(=O)O)C(=O)N[C@@H](CCC(=O)O)C(=O)N1CCC[C@H]1C(=O)N[C@@H](CO)C(=O)N[C@@H](CO)C(=O)NCC(=O)N[C@@H](CCCCN)C(=O)N[C@@H](CCCCN)C(=O)N1CCC[C@H]1C(=O)N1CCC[C@H]1C(=O)N[C@@H](CO)C(=O)O)C(C)C [Compound A88] (H-YSHGTFTSDYSKYLD[Aib]KRAQEFV[Aib]WLEDEPSSGKKPPS-OH) | > 1
CC(C)C[C@H](NC(=O)[C@H](Cc1ccc(O)cc1)NC(=O)[C@H](CCCCN)NC(=O)[C@H](CO)NC(=O)[C@H](Cc1ccc(O)cc1)NC(=O)[C@H](CC(=O)O)NC(=O)[C@H](CO)NC(=O)[C@@H](NC(=O)[C@H](Cc1ccccc1)NC(=O)[C@@H](NC(=O)CNC(=O)[C@H](Cc1c[nH]cn1)NC(=O)[C@H](CO)NC(=O)[C@@H](N)Cc1ccc(O)cc1)[C@@H](C)O)[C@@H](C)O)C(=O)N[C@@H](CC(=O)O)C(=O)NC(C)(C)C(=O)N[C@@H](CCCCN)C(=O)N[C@@H](CCCNC(=N)N)C(=O)N[C@@H](C)C(=O)N[C@@H](CCC(N)=O)C(=O)N[C@@H](CCC(=O)O)C(=O)N[C@@H](Cc1ccccc1)C(=O)N[C@H](C(=O)NC(C)(C)C(=O)N[C@@H](Cc1c[nH]cn1)C(=O)N[C@@H](CC(C)C)C(=O)N[C@@H](CCC(=O)O)C(=O)N[C@@H](CC(=O)O)C(=O)N[C@@H](CCC(=O)O)C(=O)N1CCC[C@H]1C(=O)N[C@@H](CO)C(=O)N[C@@H](CO)C(=O)NCC(=O)N[C@@H](CCCCN)C(=O)N1CCC[C@H]1C(=O)N1CCC[C@H]1C(=O)N1CCC[C@H]1C(=O)N[C@@H](CO)C(=O)O)C(C)C [Compound A89] (H-YSHGTFTSDYSKYLD[Aib]KRAQEFV[Aib]HLEDEPSSGKPPPS-OH; N-terminus assumed) | > 1
CC(C)C[C@H](NC(=O)[C@H](Cc1ccc(O)cc1)NC(=O)[C@H](CCCCN)NC(=O)[C@H](CO)NC(=O)[C@H](Cc1ccc(O)cc1)NC(=O)[C@H](CC(=O)O)NC(=O)[C@H](CO)NC(=O)[C@@H](NC(=O)[C@H](Cc1ccccc1)NC(=O)[C@@H](NC(=O)CNC(=O)[C@H](Cc1c[nH]cn1)NC(=O)[C@H](CO)NC(=O)[C@@H](N)Cc1ccc(O)cc1)[C@@H](C)O)[C@@H](C)O)C(=O)N[C@@H](CC(=O)O)C(=O)NC(C)(C)C(=O)N[C@@H](CCCCN)C(=O)N[C@@H](C)C(=O)N[C@@H](C)C(=O)N[C@@H](CCC(N)=O)C(=O)N[C@@H](CCC(=O)O)C(=O)N[C@@H](Cc1ccccc1)C(=O)N[C@H](C(=O)NC(C)(C)C(=O)N[C@@H](Cc1c[nH]c2ccccc12)C(=O)N[C@@H](CC(C)C)C(=O)N[C@@H](CCC(=O)O)C(=O)N[C@@H](CC(=O)O)C(=O)N[C@@H](CCC(=O)O)C(=O)N1CCC[C@H]1C(=O)N[C@@H](CO)C(=O)N[C@@H](CO)C(=O)NCC(=O)N[C@@H](CCCCN)C(=O)N1CCC[C@H]1C(=O)N1CCC[C@H]1C(=O)N1CCC[C@H]1C(=O)N[C@@H](CO)C(=O)O)C(C)C [Compound A90] (H-YSHGTFTSDYSKYLD[Aib]KAAQEFV[Aib]WLEDEPSSGKPPPS-OH; N-terminus assumed) | > 1
CC(C)C[C@H](NC(=O)[C@H](Cc1ccc(O)cc1)NC(=O)[C@H](CCCCN)NC(=O)[C@H](CO)NC(=O)[C@H](Cc1ccc(O)cc1)NC(=O)[C@H](CC(=O)O)NC(=O)[C@H](CO)NC(=O)[C@@H](NC(=O)[C@H](Cc1ccccc1)NC(=O)[C@@H](NC(=O)CNC(=O)[C@H](CCC(N)=O)NC(=O)[C@H](CO)NC(=O)[C@@H](N)Cc1ccc(O)cc1)[C@@H](C)O)[C@@H](C)O)C(=O)N[C@@H](CC(=O)O)C(=O)NC(C)(C)C(=O)N[C@@H](CCCCN)C(=O)N[C@@H](C)C(=O)N[C@@H](C)C(=O)N[C@@H](CCC(N)=O)C(=O)N[C@@H](CCC(=O)O)C(=O)N[C@@H](Cc1ccccc1)C(=O)N[C@H](C(=O)NC(C)(C)C(=O)N[C@@H](Cc1c[nH]c2ccccc12)C(=O)N[C@@H](CC(C)C)C(=O)N[C@@H](CCC(=O)O)C(=O)N[C@@H](CC(=O)O)C(=O)N[C@@H](CCC(=O)O)C(=O)N1CCC[C@H]1C(=O)N[C@@H](CO)C(=O)N[C@@H](CO)C(=O)NCC(=O)N[C@@H](CCCCN)C(=O)N1CCC[C@H]1C(=O)N1CCC[C@H]1C(=O)N1CCC[C@H]1C(=O)N[C@@H](CO)C(=O)O)C(C)C [Compound A96] (H-YSQGTFTSDYSKYLD[Aib]KAAQEFV[Aib]WLEDEPSSGKPPPS-OH; N-terminus assumed) | > 1
